# From patent publication US20180282339A1 (OLON S.P.A., priority 2015, published 2018)
# Conditions: conditions not specified at this place, b45 (heating at 60-120 ° C. for 1-12 hours gives amorphous form)
# Description: In particular the following tests have been made: • stability at 25° C./40% Relative Humidity for 7 days • stability at 40° C./75% Relative Humidity for 7 days • stability at 25° C./60% Relative Humidity for 7 days • stability at 60° C./40% Relative Humidity for 7 days
smiles,measurement,value
"C=CC(=O)N1CCC[C@@H](n2nc(-c3ccc(Oc4ccccc4)cc3)c3c(N)ncnc32)C1 [Form L, 1-[(3R)-3-[4-amino-3-(4-phenoxyphenyl)-1H-pyrazolo[3,4-d]pyrimidin-1-yl]piperidin-1-yl]prop-2-en-1-one]",solid form conversion in some conditions,converts in Form A or in the amorphous form
